Data taken from the supplement of paper PMC10307832.

How the values were obtained:
Experiment in all cases: relative viability (nuclei count vs DMSO), 5 days (fraction); higher = more cells survive
[1] = compound: O=C1NC(=O)[C@@H](c2cn3c4c(cccc24)CCC3)[C@@H]1c1c[nH]c2ccccc12 [Tivantinib] + CS(=O)(=O)CCNCc1ccc(-c2ccc3ncnc(Nc4ccc(OCc5cccc(F)c5)c(Cl)c4)c3c2)o1 [Lapatinib] (partner 2 µM)
Method in brief: (§1)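 Relative viability is defined as nuclei in treated wells over nuclei in vehicle wells. Duplicate plates were run and medians reported. Lung cancer cell lines in 1536-well plates were dosed by pin tool one day after seeding, with one drug or with a fixed anchor-drug dose plus five library-drug doses (not always all listed) in √10 steps, and nuclei were counted after 5 days.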

[2] = compound: CC1(COc2ccc3c(c2)ncn3-c2ccc3cccc(N4CCC(N)CC4)c3n2)COC1 [Crenolanib] + N=C(N)NC(=N)NCCc1ccccc1 [Phenformin] (partner 250 µM)
Method in brief: as §1

[3] = compound: CC1(COc2ccc3c(c2)ncn3-c2ccc3cccc(N4CCC(N)CC4)c3n2)COC1 [Crenolanib] + Cc1cc(Nc2cc(N3CCN(C)CC3)nc(Sc3ccc(NC(=O)C4CC4)cc3)n2)n[nH]1 [Tozasertib] (partner 0.1 µM)
Method in brief: as §1

[4] = compound: O=C1NC(=O)[C@@H](c2cn3c4c(cccc24)CCC3)[C@@H]1c1c[nH]c2ccccc12 [Tivantinib] + CC(C)C[C@H](NC(=O)[C@H](Cc1ccccc1)NC(=O)c1cnccn1)B(O)O [Bortezomib] (partner 0.002 µM)
Method in brief: as §1

Cell Line	relative viability ([1]; first compound 0.01 µM)	relative viability ([1]; first compound 0.03162 µM)	relative viability ([1]; first compound 0.1 µM)	relative viability ([1]; first compound 0.3162 µM)	relative viability ([2]; first compound 0.01 µM)	relative viability ([2]; first compound 0.03162 µM)	relative viability ([2]; first compound 0.1 µM)	relative viability ([2]; first compound 0.3162 µM)	relative viability ([2]; first compound 1 µM)	relative viability ([3]; first compound 0.01 µM)	relative viability ([3]; first compound 0.03162 µM)	relative viability ([3]; first compound 0.1 µM)	relative viability ([3]; first compound 0.3162 µM)	relative viability ([3]; first compound 1 µM)	relative viability ([4]; first compound 0.01 µM)	relative viability ([4]; first compound 0.03162 µM)	relative viability ([4]; first compound 0.1 µM)	relative viability ([4]; first compound 0.3162 µM)
201T	1.08	1.01	1.04	1.14	0.438	0.446	0.438	0.446	0.435	1.04	1.02	0.856	0.733	0.945	1.06	1.06	1.09	1.1
A549	1	1.02	0.911	0.935	0.193	0.185	0.165	0.103	0.145									
A-427	1	1.12	0.989	1.12	0.366	0.372	0.311	0.255	0.244	0.209	0.237	0.224	0.181	0.225	0.997	1	0.854	1.06
ABC-1		1.13	1.17	0.869	0.21	0.265	0.22	0.261	0.257	0.177	0.202	0.179	0.162	0.133	0.287	0.243	0.337	0.301
BEN	0.623	0.617	0.591	0.691	0.259	0.235	0.267	0.255	0.271	0.524	0.476	0.474	0.484	0.464	0.75	0.561	0.744	0.824
CAL-12T	0.723	0.62	0.644	0.424	0.533	0.575	0.545	0.598	0.538	0.314	0.349	0.294	0.343	0.36	0.999	0.873	1.03	0.854
COR-L23	1.12	0.975	0.894	0.922	0.444	0.417	0.47	0.427	0.397	0.214	0.22	0.201	0.206	0.185	0.977	0.93	0.942	0.996
COR-L 105	0.412	0.359	0.29	0.359	0.625	0.474	0.497	0.5	0.547	0.379	0.426	0.365	0.38	0.358	0.754	0.398	0.671	0.354
Calu-6	1.08	1.02	1.02	0.965											1.08	1.07	0.969	0.738
ChaGo-K-1					0.533	0.495	0.536	0.42	0.497	0.26	0.264	0.234	0.209	0.22	0.96	0.957	0.941	0.989
EBC-1	0.205	0.248	0.194	0.201											0.611	0.596	0.557	0.465
EKVX	0.194	0.225	0.225	0.176	0.223	0.224	0.24	0.241	0.23	0.465	0.346	0.428	0.364	0.359	1.22	1	0.928	0.6
EMC-BAC-2	1	0.852	0.867	0.881	0.629	0.497	0.589	0.51	0.505	0.312	0.251	0.322	0.239	0.309	1.05	0.989	1.04	0.969
EPLC-272H	1.08	0.711	0.846	0.383	0.356	0.331	0.224	0.375	0.382	0.385	0.352	0.257	0.286	0.377	1.16	0.813	0.741	0.608
H3255	0.275	0.234	0.294		0.432	0.326	0.386	0.321	0.35	0.672	0.609	0.579	0.671	0.611	0.812	0.884	0.723	
HARA	0.888	0.651	0.636	0.82	0.471	0.464	0.398	0.391	0.488	0.138	0.131	0.145	0.116	0.121	1.16	1.04	1.07	1.06
HCC-15	0.815	0.846	0.873	0.829	0.51	0.506	0.447	0.469	0.327	0.397	0.313	0.444	0.378	0.427	0.949	0.995	0.943	1.04
HCC-44	1.02	1.04	0.998	1	0.267	0.207	0.188	0.184	0.169	1.07	0.781	0.89	0.578	0.57	0.87	0.975	0.883	0.915
HCC-78	0.477	0.786	0.647	0.456	0.783	0.604		0.791	0.555	0.366	0.395		0.406	0.368	0.593	0.319	0.38	

Cell Line	relative viability ([1]; first compound 0.01 µM)	relative viability ([1]; first compound 0.03162 µM)	relative viability ([1]; first compound 0.1 µM)	relative viability ([1]; first compound 0.3162 µM)	relative viability ([2]; first compound 0.01 µM)	relative viability ([2]; first compound 0.03162 µM)	relative viability ([2]; first compound 0.1 µM)	relative viability ([2]; first compound 0.3162 µM)	relative viability ([2]; first compound 1 µM)	relative viability ([3]; first compound 0.01 µM)	relative viability ([3]; first compound 0.03162 µM)	relative viability ([3]; first compound 0.1 µM)	relative viability ([3]; first compound 0.3162 µM)	relative viability ([3]; first compound 1 µM)	relative viability ([4]; first compound 0.01 µM)	relative viability ([4]; first compound 0.03162 µM)	relative viability ([4]; first compound 0.1 µM)	relative viability ([4]; first compound 0.3162 µM)
IA-LM	0.871	0.882	0.669	0.771											0.855	0.942	0.743	0.848
LCLC-103H					0.316	0.329	0.295	0.34	0.352	0.46	0.588	0.448	0.359	0.458	0.909	0.895	0.966	1.03
LK-2	0.955		0.841	0.872	0.472	0.446	0.411	0.314	0.317	0.164	0.179	0.19	0.177	0.171				
NCI-H358	0.53	0.42	0.418	0.403	0.372	0.321	0.3	0.292	0.239	0.0999	0.097	0.0998	0.0966	0.12				
NCI-H441					0.771	0.881	0.955	0.936	0.633	0.68	0.82	0.643	0.717	0.663	0.525	0.651		0.449
NCI-H522					0.706	0.641	0.756	0.656	0.675	0.559	0.604	0.559	0.561	0.576				
NCI-H1299	0.967	0.952	0.988	0.924											1	1	1.04	1.03
NCI-H1395	1.23	1.18	0.981	0.992	0.448	0.455	0.497	0.469	0.436	0.742	0.759	0.81	0.691	0.659				
NCI-H1563	1.05	0.894	0.831	0.908	0.615	0.66	0.699	0.607	0.672						0.831	0.748	0.897	0.809
NCI-H1623					0.592	0.595	0.543	0.585	0.553	0.492	0.439	0.437	0.41	0.421				
NCI-H1648										0.496	0.51	0.602	0.387	0.408				
NCI-H1703	1.3	0.94	1.06	1.06											0.36	0.362	0.29	0.31
NCI-H1792	0.91	0.939	0.822	0.964	0.185	0.351	0.244	0.282	0.317						0.943	0.968	0.927	0.813
NCI-H1793	0.836	0.735	0.651		0.453	0.38	0.376	0.288	0.364	0.368	0.362	0.396	0.226	0.422				
NCI-H1944	0.832	0.742	0.895	0.906	0.217	0.222	0.221	0.202	0.177	0.251	0.248	0.261	0.242	0.234				
NCI-H2170	0.157	0.252	0.277		0.467	0.41	0.387	0.326	0.387	0.747	0.857	0.69	0.648	0.769				
NCI-H2342					0.724	0.525	0.556	0.652	0.64	0.546	0.496	0.682	0.483	0.454				
SK-MES-1	0.441	0.426	0.387	0.417	0.655	0.635	0.687	0.636	0.583	0.899	0.832	0.847	0.912	0.746				
SW 900					0.81	0.697	0.55	0.416	0.585	0.62	0.675	0.547	0.457	0.516				
